How the values were obtained:
[1] = biological target: T1, catalytic domain (JH1, amino acids 826-1132) of human JAK2 (Homo sapiens, UniProt O60674); assay: JAK2 LanthaScreen JH1 Binding Assay; conditions: JAK2 JH1 1.5 nM, 50 nM tracer, 2 hours at 25° C.; read-out: JH1 BIND
T1 construct: catalytic domain (JH1, amino acids 826-1132) of human JAK2; FLAG (N); biotin (biotinylated); purchased Carna Biosciences 08-445-20N; host or cells: baculovirus expression system
Summary of the method: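 TR-FRET tracer-displacement format: compound IC50 from four-parameter curves after 2 h at 25° C. Reaction held 1.5 nM biotinylated, FLAG-tagged JH1 (aa 826-1132), 50 nM tracer, 0.5 nM Streptavidin-Tb, pH 7.5 Tris buffer; 2 mM ATP set nonspecific background.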

[2] = biological target: T2, pseudo-kinase domain (JH2, amino-acids 536-812) of human Wild Type JAK2 (Homo sapiens, UniProt O60674, F794H/W659A/W777A); assay: JAK2 LanthaScreen JH2-WT Binding Assay; conditions: JAK2 JH2-WT 0.145 nM, 50 nM tracer, 1 hour at 25° C.; read-out: JH2 BIND WT
T2 construct: pseudo-kinase domain (JH2, amino-acids 536-812 with 3 surface mutations W659A, W777A, F794H); His (C); purchased BPS Bioscience 79463; host or cells: baculovirus expression system
T2 sequence (O60674 536-812 W659A/W777A/F794H): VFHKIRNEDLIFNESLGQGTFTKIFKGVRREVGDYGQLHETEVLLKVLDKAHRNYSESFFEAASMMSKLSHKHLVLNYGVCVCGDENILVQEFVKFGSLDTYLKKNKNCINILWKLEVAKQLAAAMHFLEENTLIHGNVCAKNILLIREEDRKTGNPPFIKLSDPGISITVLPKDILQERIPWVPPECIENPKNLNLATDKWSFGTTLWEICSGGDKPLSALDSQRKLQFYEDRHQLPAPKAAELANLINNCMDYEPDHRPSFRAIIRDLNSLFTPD
Summary of the method: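 TR-FRET tracer displacement: IC50 from four-parameter dose-response fit. Reaction: compound, 0.145 nM biotinylated JH2 protein from baculovirus, 0.25 nM streptavidin-Tb and 50 nM tracer, 1 h at 25° C, 50 mM Tris pH 7.5 buffer. 2 mM ATP gave non-specific binding.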

[3] = biological target: T3, pseudo-kinase domain (JH2, amino-acids 536-812) of human V617F mutant JAK2 (Homo sapiens, UniProt O60674, F794H/V617F/W659A/W777A); assay: JAK2 LanthaScreen JH2-V617F Binding Assay; conditions: JAK2 JH2-V617F 0.26 nM, 50 nM tracer, 1 hour at 25° C.; read-out: JH2 BIND V617F
T3 construct: pseudo-kinase domain (JH2, amino-acids 536-812 with 3 surface mutations W659A, W777A, F794H); His (C); purchased BPS Bioscience 79498; host or cells: baculovirus expression system
T3 sequence (O60674 536-812 V617F/W659A/W777A/F794H): as the sequence (O60674 536-812 W659A/W777A/F794H) above, with V82F counted along it
Summary of the method: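 Serially diluted compounds are mixed with 0.26 nM protein, 50 nM fluorescent JAK2-JH2 tracer and 0.25 nM terbium-labelled streptavidin, then incubated 1 h at 25° C. LanthaScreen signal is read, and IC50 is fitted.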

[4] = biological target: catalytic domain (JH1, amino acids 808-1132) of human JAK2 (Homo sapiens, UniProt O60674); assay: JAK2 HTRF Enzyme Activity Assay; assay type: biochemical; conditions: ATP 30 µM, 60 minutes at 25° C.; read-out: V617F ENZ 30 UM
catalytic domain (JH1, amino acids 808-1132) of human JAK2, sequence (O60674 808-1132 limits assumed): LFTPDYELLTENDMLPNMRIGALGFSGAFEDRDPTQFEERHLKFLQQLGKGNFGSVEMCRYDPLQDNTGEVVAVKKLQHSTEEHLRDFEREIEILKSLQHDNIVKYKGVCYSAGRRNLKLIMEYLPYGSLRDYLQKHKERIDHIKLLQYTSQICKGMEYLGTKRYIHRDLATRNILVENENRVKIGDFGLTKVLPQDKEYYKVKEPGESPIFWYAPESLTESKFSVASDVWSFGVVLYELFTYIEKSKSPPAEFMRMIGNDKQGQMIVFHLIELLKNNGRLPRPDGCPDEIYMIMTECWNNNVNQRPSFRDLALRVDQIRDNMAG

T1 sequence (O60674 826-1132): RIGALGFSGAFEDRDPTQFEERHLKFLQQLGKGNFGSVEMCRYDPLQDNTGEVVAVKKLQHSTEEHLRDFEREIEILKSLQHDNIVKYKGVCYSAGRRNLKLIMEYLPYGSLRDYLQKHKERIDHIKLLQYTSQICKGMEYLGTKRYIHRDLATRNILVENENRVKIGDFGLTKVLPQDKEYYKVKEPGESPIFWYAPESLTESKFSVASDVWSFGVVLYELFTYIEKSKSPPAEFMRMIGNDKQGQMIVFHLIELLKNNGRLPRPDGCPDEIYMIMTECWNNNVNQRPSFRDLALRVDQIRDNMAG

Row | Compound | IC50 [1] | IC50 [2] | IC50 [3] | IC50 [4]
1 | COC(=O)N[C@@H]1CC[C@@H](n2c(=O)n(C)c3cnc(Nc4ccc(F)c(-c5ccc(OC(F)(F)F)cc5)n4)cc32)C1 [Example 73, Methyl ((1R,3R)-3-(6-((5-fluoro-6-(4-(trifluoromethoxy)phenyl)pyridin-2-yl)amino)-3-methyl-2-oxo-2,3-dihydro-1H-imidazo[4,5-c]pyridin-1-yl)cyclopentyl)carbamate] | > 1000 nM | 10 to 100 nM | 10 to 100 nM | > 1000 nM
2 | [2H]C([2H])([2H])n1c(=O)n([C@@H]2CC[C@@H](NC(=O)OC)C2)c2cc(Nc3cc(CN4CCOCC4)cc(-c4ccc5c(c4)OCCO5)n3)ncc21 [Example 74, Methyl ((1R,3R)-3-(6-((6-(2,3-dihydrobenzo[b][1,4]dioxin-6-yl)-4-(morpholinomethyl)pyridin-2-yl)amino)-3-(methyl-d3)-2-oxo-2,3-dihydro-1H-imidazo[4,5-c]pyridin-1-yl)cyclopentyl)carbamate] | > 1000 nM | ≤ 10 nM | ≤ 10 nM | > 1000 nM
3 | [2H]C([2H])([2H])n1c(=O)n([C@@H]2CC[C@@H](NC(=O)OC)C2)c2cc(Nc3ccnc(-c4ccnc(OC)c4)n3)ncc21 [Example 75, Methyl ((1R,3R)-3-(6-((2-(2-methoxypyridin-4-yl)pyrimidin-4-yl)amino)-3-(methyl-d3)-2-oxo-2,3-dihydro-1H-imidazo[4,5-c]pyridin-1-yl)cyclopentyl)carbamate] | > 1000 nM | ≤ 10 nM | ≤ 10 nM | > 1000 nM
4 | [2H]C([2H])([2H])n1c(=O)n([C@@H]2CC[C@@H](NC(=O)OC)C2)c2cc(Nc3cc(C(=O)N4CCN5CCCCC5C4)cc(-c4ccc5c(c4)OCCO5)n3)ncc21 (stereo partly drawn) [Example 76, Methyl ((1R,3R)-3-(6-((6-(2,3-dihydrobenzo[b][1,4]dioxin-6-yl)-4-(octahydro-2H-pyrido[1,2-a]pyrazine-2-carbonyl)pyridin-2-yl)amino)-3-(methyl-d3)-2-oxo-2,3-dihydro-1H-imidazo[4,5-c]pyridin-1-yl)cyclopentyl)carbamate] | > 1000 nM | ≤ 10 nM | ≤ 10 nM | > 1000 nM
5 | COC(=O)N[C@@H]1CC[C@@H](n2c(=O)n(C)c3cnc(Nc4ccnc(N5CCC6(CC6)C5)n4)cc32)C1 [Example 77, Methyl ((1R,3R)-3-(6-((2-(5-azaspiro[2.4]heptan-5-yl)pyrimidin-4-yl)amino)-3-methyl-2-oxo-2,3-dihydro-1H-imidazo[4,5-c]pyridin-1-yl)cyclopentyl)carbamate] | > 1000 nM | ≤ 10 nM | ≤ 10 nM | > 1000 nM
6 | COC(=O)N[C@@H]1CC[C@@H](n2c(=O)n(C)c3cnc(Nc4ccnc(N5CCC(F)(F)C5)n4)cc32)C1 [Example 78, Methyl ((1R,3R)-3-(6-((2-(3,3-difluoropyrrolidin-1-yl)pyrimidin-4-yl)amino)-3-methyl-2-oxo-2,3-dihydro-1H-imidazo[4,5-c]pyridin-1-yl)cyclopentyl)carbamate] | > 1000 nM | ≤ 10 nM | ≤ 10 nM | > 1000 nM
7 | COC(=O)N[C@@H]1CC[C@@H](n2c(=O)n(C)c3cnc(Nc4ccnc(N5CCC(C(F)(F)F)CC5)n4)cc32)C1 [Example 79, Methyl ((1R,3R)-3-(3-methyl-2-oxo-6-((2-(4-(trifluoromethyl)piperidin-1-yl)pyrimidin-4-yl)amino)-2,3-dihydro-1H-imidazo[4,5-c]pyridin-1-yl)cyclopentyl)carbamate] | > 1000 nM | ≤ 10 nM | ≤ 10 nM | > 1000 nM
8 | [2H]C([2H])([2H])n1c(=O)n([C@@H]2CC[C@@H](NC(=O)OC)C2)c2cc(Nc3cc(C(=O)N4CC[C@@H](F)C4)cc(-c4ccc5c(c4)OCCO5)n3)ncc21 [Example 80, Methyl ((1R,3R)-3-(6-((6-(2,3-dihydrobenzo[b][1,4]dioxin-6-yl)-4-((R)-3-fluoropyrrolidine-1-carbonyl)pyridin-2-yl)amino)-3-(methyl-d3)-2-oxo-2,3-dihydro-1H-imidazo[4,5-c]pyridin-1-yl)cyclopentyl)carbamate] | > 1000 nM | ≤ 10 nM | ≤ 10 nM | > 1000 nM
9 | COC(=O)N[C@@H]1CC[C@@H](n2c(=O)n(C)c3cnc(Nc4ccn(-c5ccncc5)n4)cc32)C1 [Example 81, Methyl ((1R,3R)-3-(3-methyl-2-oxo-6-((1-(pyridin-4-yl)-1H-pyrazol-3-yl)amino)-2,3-dihydro-1H-imidazo[4,5-c]pyridin-1-yl)cyclopentyl)carbamate] | > 1000 nM | 100 to 500 nM | 100 to 500 nM | > 1000 nM
10 | [2H]C([2H])([2H])n1c(=O)n([C@@H]2CC[C@@H](NC(=O)OC)C2)c2cc(Nc3cc(C(=O)N4CCOCC4)cc(-c4ccc5c(c4)OCCO5)n3)ncc21 [Example 82, Methyl ((1R,3R)-3-(6-((6-(2,3-dihydrobenzo[b][1,4]dioxin-6-yl)-4-(morpholine-4-carbonyl)pyridin-2-yl)amino)-3-(methyl-d3)-2-oxo-2,3-dihydro-1H-imidazo[4,5-c]pyridin-1-yl)cyclopentyl)carbamate] | > 1000 nM | ≤ 10 nM | ≤ 10 nM | > 1000 nM
11 | COC(=O)N[C@@H]1CC[C@@H](n2c(=O)n(C)c3cnc(Nc4ccnc(NC5CCC(F)(F)C5)n4)cc32)C1 (stereo partly drawn) [Example 83, Methyl ((1R,3R)-3-(6-((2-((3,3-difluorocyclopentyl)amino)pyrimidin-4-yl)amino)-3-methyl-2-oxo-2,3-dihydro-1H-imidazo[4,5-c]pyridin-1-yl)cyclopentyl)carbamate] | > 1000 nM | ≤ 10 nM | 10 to 100 nM | > 1000 nM
12 | COC(=O)N[C@@H]1CC[C@@H](n2c(=O)n(C)c3cnc(Nc4cc(C)nc(N5CCC(F)(F)C5)n4)cc32)C1 [Example 84, Methyl ((1R,3R)-3-(6-((2-(3,3-difluoropyrrolidin-1-yl)-6-methylpyrimidin-4-yl)amino)-3-methyl-2-oxo-2,3-dihydro-1H-imidazo[4,5-c]pyridin-1-yl)cyclopentyl)carbamate] | > 1000 nM | ≤ 10 nM | ≤ 10 nM | > 1000 nM
13 | COC(=O)N[C@@H]1CC[C@@H](n2c(=O)n(C)c3cnc(Nc4ccnc(NC5CCOCC5)n4)cc32)C1 [Example 85, Methyl ((1R,3R)-3-(3-methyl-2-oxo-6-((2-((tetrahydro-2H-pyran-4-yl)amino)pyrimidin-4-yl)amino)-2,3-dihydro-1H-imidazo[4,5-c]pyridin-1-yl)cyclopentyl)carbamate] | > 1000 nM | 10 to 100 nM | 10 to 100 nM | > 1000 nM
14 | COC(=O)N[C@@H]1CC[C@@H](n2c(=O)n(C)c3cnc(Nc4cccc(C(=O)N5CCCCC5)n4)cc32)C1 [Example 86, Methyl ((1R,3R)-3-(3-methyl-2-oxo-6-((6-(piperidine-1-carbonyl)pyridin-2-yl)amino)-2,3-dihydro-1H-imidazo[4,5-c]pyridin-1-yl)cyclopentyl)carbamate] | > 1000 nM | 10 to 100 nM | 100 to 500 nM | > 1000 nM
15 | COC(=O)N[C@@H]1CC[C@@H](n2c(=O)n(C)c3cnc(Nc4cccc(C(=O)NC5CCCCC5)n4)cc32)C1 [Example 87, Methyl ((1R,3R)-3-(6-((6-(cyclohexylcarbamoyl)pyridin-2-yl)amino)-3-methyl-2-oxo-2,3-dihydro-1H-imidazo[4,5-c]pyridin-1-yl)cyclopentyl)carbamate] | > 1000 nM | ≤ 10 nM | 10 to 100 nM | > 1000 nM
16 | [2H]C([2H])([2H])n1c(=O)n([C@@H]2CC[C@@H](NC(=O)OC)C2)c2cc(Nc3ccc4c(n3)c(-c3cnn(C(F)(F)F)c3)cn4CCOC)ncc21 [Example 88, Methyl ((1R,3R)-3-(6-((1-(2-methoxyethyl)-3-(1-(trifluoromethyl)-1H-pyrazol-4-yl)-1H-pyrrolo[3,2-b]pyridin-5-yl)amino)-3-(methyl-d3)-2-oxo-2,3-dihydro-1H-imidazo[4,5-c]pyridin-1-yl)cyclopentyl)carbamate] | > 1000 nM | ≤ 10 nM | ≤ 10 nM | > 1000 nM
